What all share (assay type): cell-based
The subject of one test is rat neural retina cells. Briefly: FA production in fresh rat retina pieces ex vivo. The conditions noted are these: FIG. 26; for FA production with apoptotic stimulus: rat neural retina. The method, then: (§1) To provide an in vitro correlate of the imaging method described above, studies were pursued of: RPE cells in vitro and fresh pieces of rat and human retina ex vivo. Both retinal fragments and RPE cells serve as good in vitro models of the human retina. To model the apoptotic events taking place in the eye, apoptotic stimuli (H2O2 and ceramide) were added to these samples. These stimuli are particularly judicious choices because both oxidative molecules and ceramide have been reported to be key mediators of retinal apoptosis.
(§2) At lethal levels, FA correlates with apoptosis measured by TUNEL and other assays.

The test system of another test is human neural retina. The test can be described thus: Cell Death Detection ELISA of neural retinal apoptosis. The procedure: To evaluate neural retinal apoptosis, pieces of human neural retina were analyzed by using a Cell Death Detection […] kit. This photometric enzyme immunoassay provides the quantitative in vitro determination of cytoplasmic histone-associated DNA fragments (mono- and oligonucleosomes) after induced cell death (shown in FIG. 24).
(An ELISA detects its analyte on a solid surface through an enzyme-linked reagent.)

For test [1], the system named is human retinal pigment epithelial (HRPE) cells. Briefly: Flavoprotein autofluorescence (FA) measurement in cultured HRPE cells. The conditions noted are these: for FA after exposure to pro-apoptotic agent: exposure for 2 hours, H2O2 0.2 mM, C2-ceramide 50 μM. The procedure:
HRPE cells were isolated from donor eyes by enzymatic digestion as previously described. Briefly, the sensory retina was separated gently from the HRPE monolayer, and the HRPE cells were removed from Bruch's membrane using one hour incubation with papain. Isolated HRPE cells were grown into Falcon Primaria flasks in DMEM/F12 containing 10% fetal bovine serum (FBS), penicillin G (100 U ml-1), streptomycin sulfate (100 μg ml-1), and amphotericin B (0.25 μg ml-1) at 37° C. in a humidified incubator under 5% CO2. In all experiments, parallel assays were performed on the second to fourth passage of HRPE cells. HRPE cells were seeded into tissue culture 96-well assay plates (black walls with clear bottoms (Costar) at the same time and density from the same parent cultures, and grown in phenol red-free complete DMEM/F12 for at least 7 days. All experiments were repeated at least three times on different cell lines.
HRPE cells in 96-well plates were washed with Hanks' balanced salt solution (HBSS), containing Ca2+ and Mg2+, without phenol red. […] Other HRPE cells in 96-well plates were pre-incubated for 30 minutes with or without dihydroceramide C2 (50 μM), followed by stimulation with C2-ceramide (50 μM) for 2 hours in the presence and absence of the same inhibitor used during pre-incubation.
FA was measured with a photomicroscope equipped with narrow bandwidth excitation and emission filters of 465 nm and 535 nm, respectively.

For a further test, the system named is human retina cells. The test can be described thus: FA production in fresh human retina pieces ex vivo. Particulars: FIG. 25; for FA production with apoptotic stimulus: human retina pieces. The method, then: as §1, §2

With `OO` [hydrogen peroxide], the “FA production with apoptotic stimulus” value in the test with rat neural retina cells is given as “induced”; with rat neural retina cells (listed as H2O2) it was “elevated flavoprotein autofluorescence (FA)”; in the test on human retina cells it was “induced”; in the test with human retina cells (listed as H2O2) it was “elevated flavoprotein autofluorescence (FA)”. In addition, the “Neural retinal apoptosis, avarage (cytoplasmic histone-associated DNA fragments)” value in the test on human neural retina (6 hr, H2O2 200, NAC 1 mM, control 1.0000) was found to be 4.3610. Also, the “Cell death induced by agent” value in the test with human neural retina (FIG. 24) is reported as “increased”. Further, in test [1] (HRPE cells), the “FA after exposure to pro-apoptotic agent” value is “significantly elevated FA”.
Consider `CCCCCCCCCCCCC/C=C/[C@@H](O)[C@H](CO)NC(C)=O` [C2-ceramide], for which the “FA production with apoptotic stimulus” value with rat neural retina cells and in the test with human retina cells was “elevated flavoprotein autofluorescence (FA)” in each case. Moreover, the “FA after exposure to pro-apoptotic agent” value in test [1] (HRPE cells) was “significantly elevated FA”.
As to `CCCCCCCCCCCCCCC[C@@H](O)[C@H](CO)NC(C)=O` [dihydroceramide C2], in test [1] (HRPE cells, dihydroceramide C2 50 μM, 30 minutes pre-incubation), the “Effect on ceramide-induced FA increases” value was “completely blocked FA increases”.
Consider `c1ccc2c(c1)[I+]c1ccccc1-2` [DPI], for which the “Effect of toxins on FA signal” value in test [1] is given as “abrogate the FA signal”.
Take `CC(=O)N[C@@H](CS)C(=O)O` [N-acetyl-cysteine]: the “Effect on hydrogen peroxide-induced FA production” value in the test with rat neural retina cells (rat neural retina cells) and in the test with human retina cells (human retina cells) was “attenuated” throughout. For the same molecule, the “Effect on cell death by hydrogen peroxide” value in the test on human neural retina (FIG. 24) is on record as “attenuated”. Further, in test [1] (HRPE cells, NAC 1 mM, 30 minutes pre-incubation), the “Effect on hydrogen peroxide-induced FA elevations” value was “completely blocked FA elevations”.

(Values after patent publication US20130338457A1, “METHOD AND APPARATUS FOR DETECTING DISEASES ASSOCIATED WITH THE EYE” (THE REGENTS OF THE UNIVERSITY OF MICHIGAN, priority 2007, published 2013).)
